The values below are quoted from earlier work in patent publication US9579288B2, “Tesofensine and beta blocker combination formulations” (Saniona A/S, priority 2015, dated 2017).

The conditions of data set [1]: obese patients, long-term treatment, corrected for placebo and diet effects.
For another data set, the system named is DIO rats. To be noted: rat model of diet-induced obesity (DIO).

Molecules are shown by their SMILES.

Consider `CCOC[C@@H]1[C@@H](c2ccc(Cl)c(Cl)c2)C[C@@H]2CC[C@H]1N2C` [Tesofensine, (1R,2R,3S,5S)-3-(3,4-dichlorophenyl)-2-(ethoxymethyl)-8-methyl-8-azabicyclo[3.2.1]octane], for which, in data set [1], the weight loss result is given as “about 10%”. Also, the body weight entry with DIO rats is “robust and sustained weight loss”.
